By IC50 is commonly meant the point on the concentration scale where inhibition reaches its midpoint.

One test addresses T1, Axl (Homo sapiens, UniProt P30530).
T1 sequence (P30530 26-894): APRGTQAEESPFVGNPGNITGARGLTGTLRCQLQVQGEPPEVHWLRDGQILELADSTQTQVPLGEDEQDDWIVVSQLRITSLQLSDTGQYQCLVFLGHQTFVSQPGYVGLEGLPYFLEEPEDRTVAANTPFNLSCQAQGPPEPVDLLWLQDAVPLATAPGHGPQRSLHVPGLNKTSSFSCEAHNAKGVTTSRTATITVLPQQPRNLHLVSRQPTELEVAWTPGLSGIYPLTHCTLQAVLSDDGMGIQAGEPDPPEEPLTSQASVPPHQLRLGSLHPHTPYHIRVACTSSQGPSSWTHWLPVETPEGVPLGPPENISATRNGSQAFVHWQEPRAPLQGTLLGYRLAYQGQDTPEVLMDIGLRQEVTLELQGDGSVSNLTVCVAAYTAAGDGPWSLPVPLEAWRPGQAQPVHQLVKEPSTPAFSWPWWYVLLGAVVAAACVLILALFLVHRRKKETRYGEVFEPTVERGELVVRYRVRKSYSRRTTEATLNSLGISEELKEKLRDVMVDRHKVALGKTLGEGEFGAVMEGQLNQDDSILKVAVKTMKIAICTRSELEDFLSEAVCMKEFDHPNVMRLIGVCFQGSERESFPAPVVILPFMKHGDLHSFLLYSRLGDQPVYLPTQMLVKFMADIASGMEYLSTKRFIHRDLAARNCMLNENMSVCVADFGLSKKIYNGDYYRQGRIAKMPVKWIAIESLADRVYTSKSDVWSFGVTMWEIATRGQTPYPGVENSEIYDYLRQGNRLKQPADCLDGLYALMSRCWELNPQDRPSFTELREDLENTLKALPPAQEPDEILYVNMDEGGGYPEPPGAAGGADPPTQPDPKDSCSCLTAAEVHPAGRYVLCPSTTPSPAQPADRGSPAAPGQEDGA
The experiment in a line: Biochemical potency, HTRF KinEASE-TK kinase assay. Also on record: purchased Invitrogen. The conditions noted are these: 5 nM AXL, 700 μM ATP. The procedure, abridged:
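HTRF 665/620 readout after a 2 h RT kinase reaction (final 700 μM ATP, 800 nM biotinylated TK substrate, 1% DMSO, HEPES pH 7.4 buffer) gave percent activity. Final enzyme was 5 nM for AXL, 1 nM for TYRO3 or MER, each preincubated 1 h with compound.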
On the technique in general: TR-FRET usually uses a lanthanide donor and a delayed reading to cut background.

The target in a further test is T2, recombinant human MER (Homo sapiens, UniProt Q12866).
T2 construct: purchased Invitrogen
T2 sequence (Q12866 21-999): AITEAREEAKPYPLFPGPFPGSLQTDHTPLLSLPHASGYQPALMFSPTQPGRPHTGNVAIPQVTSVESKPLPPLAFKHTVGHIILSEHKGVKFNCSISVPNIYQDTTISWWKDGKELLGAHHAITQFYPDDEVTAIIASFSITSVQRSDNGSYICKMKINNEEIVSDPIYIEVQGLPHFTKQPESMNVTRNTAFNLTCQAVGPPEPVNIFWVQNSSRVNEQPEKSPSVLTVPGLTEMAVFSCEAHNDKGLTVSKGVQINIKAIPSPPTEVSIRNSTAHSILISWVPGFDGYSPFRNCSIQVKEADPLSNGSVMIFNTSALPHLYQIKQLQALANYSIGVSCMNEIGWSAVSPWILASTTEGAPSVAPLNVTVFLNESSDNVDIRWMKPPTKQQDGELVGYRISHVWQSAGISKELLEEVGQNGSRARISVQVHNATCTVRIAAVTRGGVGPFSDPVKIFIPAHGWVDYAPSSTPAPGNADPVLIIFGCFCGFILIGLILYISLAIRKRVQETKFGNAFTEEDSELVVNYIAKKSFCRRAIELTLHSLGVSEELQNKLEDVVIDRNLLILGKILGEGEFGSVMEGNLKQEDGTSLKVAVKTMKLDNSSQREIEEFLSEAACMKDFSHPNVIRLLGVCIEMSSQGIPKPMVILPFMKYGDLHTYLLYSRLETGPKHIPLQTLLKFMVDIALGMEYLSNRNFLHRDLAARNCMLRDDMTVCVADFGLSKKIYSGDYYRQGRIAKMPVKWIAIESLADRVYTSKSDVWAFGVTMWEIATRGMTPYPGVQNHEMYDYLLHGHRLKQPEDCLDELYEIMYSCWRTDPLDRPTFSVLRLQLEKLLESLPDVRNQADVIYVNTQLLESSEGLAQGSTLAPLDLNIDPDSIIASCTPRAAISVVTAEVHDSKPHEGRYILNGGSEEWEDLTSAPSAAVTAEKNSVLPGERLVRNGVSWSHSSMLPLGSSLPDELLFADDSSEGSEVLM
The experiment in a line: Biochemical potency, HTRF KinEASE-TK kinase assay. The conditions noted are these: 1 nM MER, 700 μM ATP. As to the method:
Measurement of Biochemical Compound Potency of Axl Inhibitors
Purified recombinant human AXL, TYRO3 and MER proteins were purchased from Invitrogen™. 10 nM AXL, 2 nM TYRO3 or MER were incubated with varying concentrations of compounds in 50 mM HEPES, pH 7.4, 10 mM MgCl2, 0.01% BSA, 1 mM DTT and 2% DMSO in a total volume of 20 μl in a 384-well microplate (Corning™ #3640) at RT for 1 h. The AXL, TYRO3 and MER enzymatic reaction was initiated by transferring 10 μl of enzyme and compound mixture into 10 μl of 1.6 μM TK Substrate-biotin (HTRF® KinEASE-TK kit, Cisbio) and 1400 μM ATP pre-incubated in 50 mM HEPES, pH 7.4, 10 mM MgCl2, 0.01% BSA, 1 mM DTT in a 384-well microplate (Corning™ #3640) at RT, giving the final reaction conditions: 5 nM AXL, 1 nM TYRO3 or MER, 800 nM TK Substrate-biotin and 700 μM ATP in 50 mM HEPES, pH 7.4, 10 mM MgCl2, 0.01% BSA, 1 mM DTT and 1% DMSO with varying concentrations of compounds. Following 2 h incubation at RT, the AXL, TYRO3 and MER enzymatic reaction was stopped by transfer of 10 μl of reaction into 10 μl of detection mix (400 nM Streptavidin-XL665, 200-fold dilution TK Antibody-Cryptate and detection buffer, HTRF® KinEASE-TK kit, Cisbio) in a white 384-well microplate (Perkin Elmer, OptiPlate 384). After 1 h incubation at RT, the plate was put into a plate reader (Evision) to read at 665/620 nm (acceptor/donor) for HTRF. The value of the DMSO blank (MIN inhibition=100% activity) was used as a negative control. The positive control was established by adding 5 μl of enzyme and DMSO mixture into 10 μl of detection mix followed by addition of 5 μl of TK Substrate-biotin and ATP mixture (MAX inhibition=0% activity). To calculate the percent activity, Equation 1 was used. Ratio665/620 is the value at a given compound concentration: […]

The target of a further test is T3, p-AXL (Homo sapiens, UniProt P30530).
T3 construct: expressed in transfected cells; host or cells: HEK293T
T3 sequence (P30530 26-894): T1 sequence (P30530 26-894)
The experiment in a line: Axl phosphorylation inhibition ELISA in HEK293T cells transfected with NanoLuc-tagged AXL. Format: cell-based. The conditions noted are these: 1 h compound incubation, media (OptiMEM). A digest of the protocol: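 HEK293T cells transiently transfected one day earlier with NanoLuc-tagged AXL were exposed to 22-point 2-fold compound dilutions for 1 h at 37° C (70,000 cells/well), then lysed. Lysates captured on anti-phospho-tyrosine coated plates for 2 h; bound p-AXL read by NanoLuc luminescence; IC50 from 4-parameter logistic fit.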
Background: In an ELISA, binding on a coated surface is turned into a signal by an enzyme label.

Bounds are passed on as bounds.

Turning to `Cc1ccc(C)c(-c2ccc(-c3n[nH]c4ncc(-c5ccc6c(c5)CC[C@@H](N5C7COC[C@H]5C7)CC6)cc34)nc2)n1` [Example 9, 3,6-Dimethyl-6′-{5-[(7S)-7-[(1R)-3-oxa-6-azabicyclo[3.1.1]heptan-6-yl]-6,7,8,9-tetrahydro-5H-benzo[7]annulen-2-yl]-1H-pyrazolo[3,4-b]pyridin-3-yl}-2,3′-bipyridine], the concentration for half-maximal inhibition (IC50) on Axl is less than 100 nM; at recombinant human MER it was 100 to 1000 nM; on p-AXL, less than 100 nM.

In the case of `Cc1cccnc1-c1ccc(-c2n[nH]c3ncc(-c4ccc5c(c4)CC[C@@H](N4C6COCC4C6)CC5)cc23)nn1` [Example 17, 6-[(7S)-3-[3-[6-(3-Methylpyridin-2-yl)pyridazin-3-yl]-1H-pyrazolo[3,4-b]pyridin-5-yl]-6,7,8,9-tetrahydro-5H-benzo[7]annulen-7-yl]-3-oxa-6-azabicyclo[3.1.1]heptane], the concentration for half-maximal inhibition (IC50) against Axl is less than 100 nM; at recombinant human MER, 100 to 1000 nM; at p-AXL, less than 100 nM.

`O=C1OCCN1c1nccnc1-c1ccc(-c2n[nH]c3ncc(-c4ccc5c(c4)CC[C@@H](N4C6COCC4C6)CC5)cc23)cc1` [Example 126, 3-[3-(4-{5-[(7S)-7-{3-Oxa-6-azabicyclo[3.1.1]heptan-6-yl}-6,7,8,9-tetrahydro-5H-benzo[7]annulen-2-yl]-1H-pyrazolo[3,4-b]pyridin-3-yl}phenyl)pyrazin-2-yl]-1,3-oxazolidin-2-one]: the half-inhibitory concentration (IC50) against Axl was less than 100 nM; on recombinant human MER, 100 to 1000 nM; at p-AXL it was 100 to 1000 nM.

Take `Cc1cccnc1-n1cc(-c2n[nH]c3ncc(-c4ccc5c(c4)CC[C@@H](N4C6COCC4C6)CC5)cc23)cn1` [Example 79, 6-[(7S)-2-{3-[1-(3-Methylpyridin-2-yl)-1H-pyrazol-4-yl]-1H-pyrazolo[3,4-b]pyridin-5-yl}-6,7,8,9-tetrahydro-5H-benzo[7]annulen-7-yl]-3-oxa-6-azabicyclo[3.1.1]heptane]: the results for the concentration for half-maximal inhibition (IC50) on Axl, on recombinant human MER and at p-AXL were less than 100 nM, 100 to 1000 nM and less than 100 nM, respectively.

As to `Cc1nccnc1-c1ccc(-c2n[nH]c3ncc(-c4ccc5c(c4)CC[C@@H](N4C6COCC4C6)CC5)cc23)nc1` [Example 55, 6-[(7S)-2-{3-[5-(3-Methylpyrazin-2-yl)pyridin-2-yl]-1H-pyrazolo[3,4-b]pyridin-5-yl}-6,7,8,9-tetrahydro-5H-benzo[7]annulen-7-yl]-3-oxa-6-azabicyclo[3.1.1]heptane], the 50% inhibitory concentration (IC50) on Axl was less than 100 nM; on recombinant human MER, more than 1000 nM; at p-AXL it was less than 100 nM.

(Values after patent US12195482B1 (Arcus Biosciences, Inc., priority 2022, dated 2025).)
